# In publication PMC4835877, “HM71224, a novel Bruton’s tyrosine kinase inhibitor, suppresses B cell and monocyte activation and ameliorates arthritis in a mouse model: a potential drug for rheumatoid arthritis” (Arthritis Research & Therapy, 2016):
# Columns and labels:
# [1] = tested on: DBA/1 J mice with collagen-induced arthritis; test: Collagen-induced arthritis (CIA) model; type: in vivo, mouse; details: dexamethasone 0.2 mg/kg once a day
# Description: All animal experimental protocols were approved by the animal care and use committee of the Hanmi Research Center, and performed in accordance with approved guidelines. Male DBA/1 J mice (9 weeks old; n = 7 per group) were immunized with an emulsion of Complete Freund’s Adjuvant and bovine type II collagen (CII) (total volume, 0.07 mL) via intradermal injection at the base of the tail (day 0). Three weeks later, the mice received a booster immunization comprising bovine CII emulsified in Incomplete Freund’s Adjuvant. […] The arthritis score and body weight were measured three times per week for 2 weeks after administration of the drugs (Additional file 1: Figure S1). The arthritis score was determined by grading each paw from 0 to 4 based on erythema, swelling, and flexion of the joint and was expressed as the sum of the scores of all four paws. Serum levels of IL-6 were measured by Luminex analysis in a bead-based immunoassay (EMD Millipore Corporation). Serum levels of anti-CII and total IgG were measured by ELISA (Chondrex, Seattle, WA, USA; Bethyl Laboratories, Montgomery, TX, USA).
# Micro-CT of the hind limbs was performed using a Siemens Inveon Micro-CT/PET scanner (Siemens Medical Solutions, Knoxville, TN, USA).
# The hind legs of each mouse were fixed with 10 % formalin, decalcified in 5 % formic acid, and embedded in paraffin. Sections were then cut and stained with hematoxylin and eosin (H&E). The bone erosion index was scored from 0 to 4 according to the following criteria: 0 = no erosion, 1 = mild (focal subchondral erosion), 2 = moderate (multiple subchondral erosions), 3 = high (as above and focal erosion of talus), and 4 = maximum (multiple erosions of tarsal and metatarsal bones).
# Figure S1. Experiment design of collagen induced arthritis. Untreated DBA/1J mice (n=7) served as healthy controls (Ctrl). DBA/1J mice (n= 56) were immunized Day 0 and day 21. On day 10 after boosting (i.e. day 31), the induction of CIA was evaluated. […] Immunized mice (n=42) were divided into 6 groups (n=7 in each group). […] CIA, collagen induced arthritis.
# CD3+ T cells = test: T cell signaling, phospho-flow of CD3/CD28-activated PBMCs; type: cell-based, human; details: CD3- and CD28-conjugated beads
# Description: For phospho-flow, B cells were activated by crosslinking their BCRs with anti-human IgM antibodies (10 μg/mL; BD Biosciences) for 10 minutes at 37 °C. Cells were then fixed with 2 % paraformaldehyde at 37 °C for 12 minutes, permeabilized, and stained with anti-CD3-FITC (SK7; BD Biosciences), anti-CD20-PerCP-Cy5.5 (H1; BD Biosciences), anti-pBtk (Y223)-Alexa647 (N35-86; BD Biosciences), anti-pPLCγ2 (Y759)-Alexa647 (K86-689.37; BD Biosciences), anti-pSTAT1 (Y701)-Alexa647 (4a; BD Biosciences), anti-pSTAT3 (Y705)-Alexa647 (4/P-STAT3; BD Biosciences), anti-pSTAT5 (Y694)-Alexa647 (47; BD Biosciences), and anti-pERK1/2 (T202/204)-Alexa647 (20A; BD Biosciences) antibodies. The cells were then washed and analyzed on an LSR II flow cytometer (BD Biosciences). Data were analyzed using FlowJo software, version 8.8 (Treestar, Ashland, OR, USA).
# Figure S5. Effect of HM71224 on human T cell signaling. […] The expression level of p-STAT1, p-STAT3, p-STAT5, and p-ERK1/2 by CD3+ T cells was then measured by phospho-flow cytometry.
Structure (SMILES),"AS, arthritis score ([1]; D0)","Wt, weight ([1]; D0) [gram]","AS, arthritis score ([1]; D1)","AS, arthritis score ([1]; D4)","AS, arthritis score ([1]; D6)","AS, arthritis score ([1]; D8)","AS, arthritis score ([1]; D12)","AS, arthritis score ([1]; D13)","AS, arthritis score ([1]; D15)","T cell receptor signaling (p-STAT1, p-STAT3 and p-STAT5) (CD3+ T cells)",p-ERK1/2 in CD3+ T cells (CD3+ T cells)
"C[C@@H]1C[C@H]2[C@@H]3CCC4=CC(=O)C=C[C@]4(C)[C@@]3(F)[C@@H](O)C[C@]2(C)[C@@]1(O)C(=O)CO [Dexa, dexamethasone, reference compound]",1.1±0.5,22.9±0.4,0.9±0.5,0.4±0.2,0.3±0.2,0.3±0.2,0.3±0.2,0.4±0.3,0.3±0.2,,
C[C@@H]1CCN(C(=O)CC#N)C[C@@H]1N(C)c1ncnc2[nH]ccc12 [Tofacitinib],,,,,,,,,,significantly suppressed,
"C=CC(=O)N1CCC[C@@H](n2nc(-c3ccc(Oc4ccccc4)cc3)c3c(N)ncnc32)C1 [PCI-32765, Ibrutinib]",,,,,,,,,,not affected,inhibited
